Results on four compounds are retold here after paper PMC10890502, “Prevention of Protease-Induced Degradation of Desmoplakin via Small Molecule Binding” (Journal of Personalized Medicine, 2024).

What all share (experiment): biochemical
Assay [1] concerns the target T1, sDSP (DSP178–627) (Homo sapiens, UniProt P15924, S442F).
T1 construct: gene DSP; N-terminal spectrin repeat/SH3 fragment, residues 178-627; pGEX-1 GST fusion cut with thrombin, E. coli BL21(DE3); fluorescein-5-maleimide label on exposed cysteines (C405, C524)
T1 sequence (P15924 178-627 S442F): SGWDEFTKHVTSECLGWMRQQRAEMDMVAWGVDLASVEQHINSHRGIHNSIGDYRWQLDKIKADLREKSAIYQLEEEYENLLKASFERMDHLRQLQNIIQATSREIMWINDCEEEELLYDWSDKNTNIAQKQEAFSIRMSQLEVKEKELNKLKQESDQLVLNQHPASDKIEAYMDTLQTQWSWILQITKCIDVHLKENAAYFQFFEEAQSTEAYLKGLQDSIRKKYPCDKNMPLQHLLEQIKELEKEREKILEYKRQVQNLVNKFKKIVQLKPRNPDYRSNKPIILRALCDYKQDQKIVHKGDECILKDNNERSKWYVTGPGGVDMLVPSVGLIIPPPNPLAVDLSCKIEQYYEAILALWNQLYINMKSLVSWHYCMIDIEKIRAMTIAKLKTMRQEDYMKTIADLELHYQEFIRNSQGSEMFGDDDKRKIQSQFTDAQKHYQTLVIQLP
On the set-up: FITC-sDSP S442F degradation by trypsin (1:50), fluorescence polarization after 60 min, per cent of protease-only control. Conditions: degradation rate of DSP S442F by trypsin; read-out: % of control remaining. Here is the method:
Fluorescence Polarization (FP) assays were conducted in […] format using a BioTek Synergy H4 plate reader with polarization capacity (Agilent; Savage, MD, USA). All samples were run at 25 °C using PBS pH 7.4, 1 mM DTT, 10 mM CaCl2, 5% DMSO, and […] FITC- DSP178–627, with 500 μM of each drug. Trypsin, chymotrypsin, or calpain at either 1:50, 1:50, or 1:20 concentration was added directly before data collection with an average void time of 2 min. Control experiments in each plate were conducted in triplicate and consisted of DSP178–627 + DMSO + protease as a positive control and DSP178–627 + DMSO + [compound left out] + protease as a negative control. Only plates that had functional positive and negative controls were used in data analysis. Samples were excited at 485 nm, and polarization was monitored at 528 nm. Data were collected at 5 min increments for 1–3 h. A mutation that partially occludes the DSP calpain cleavage site rescues DSP protein levels. We next assessed whether protease-dependent cleavage can also be blocked by small molecules. We screened 2496 FDA-approved drugs for their ability to prevent trypsin-dependent cleavage of sDSP S442F in our FP assay (Figure 3A). […] No change in fluorescence polarization after an hour is indicative of 0% protein degradation rate, as occurs in the [compound left out] positive control. […] (A) sDSP S442F degradation in the presence of trypsin plus 2496 compounds from the Cayman chemical “FDA library”. A degradation rate of 100% indicates the same desmoplakin degradation rate with and without the addition of 500 μM drug while a 0% rate indicates no degradation, as judged by fluorescent polarization values after 1 h. A trypsin-only control and a trypsin + [compound left out] control is indicated. Protection (red lines) was arbitrarily set between 33% and −10%. […] (B) Example of how the data in A was generated.

In assay [2] the target is T2, sDSP (DSP178–627) (Homo sapiens, UniProt P15924).
T2 construct: gene DSP; N-terminal spectrin repeat/SH3 fragment, residues 178-627; pGEX-1 GST fusion cut with thrombin, E. coli BL21(DE3); fluorescein-5-maleimide label on exposed cysteines (C405, C524)
T2 sequence (P15924 178-627): T1 sequence (P15924 178-627 S442F) with F265S
Further details: FITC-sDSP degradation by calpain (1:20), fluorescence polarization after 60 min, per cent of calpain-only control. The settings on record: degradation rate of DSP WT by calpain; read-out: % of control remaining. Here is the method:
(§1) Fluorescence Polarization (FP) assays were conducted in […] format using a BioTek Synergy H4 plate reader with polarization capacity (Agilent; Savage, MD, USA). All samples were run at 25 °C using PBS pH 7.4, 1 mM DTT, 10 mM CaCl2, 5% DMSO, and […] FITC- DSP178–627, with 500 μM of each drug. Trypsin, chymotrypsin, or calpain at either 1:50, 1:50, or 1:20 concentration was added directly before data collection with an average void time of 2 min. Control experiments in each plate were conducted in triplicate and consisted of DSP178–627 + DMSO + protease as a positive control and DSP178–627 + DMSO + [compound left out] + protease as a negative control. Only plates that had functional positive and negative controls were used in data analysis. Samples were excited at 485 nm, and polarization was monitored at 528 nm. Data were collected at 5 min increments for 1–3 h. […] Therefore, we next tested whether these 62 compounds also prevent wildtype and variant DSP degradation in the presence of calpain. […] (A) Normalized fluorescent polarization of WT and sDSP variants in the presence of a 1:20 ratio of calpain plus 500 μM drug, as compared to calpain alone (black) (B) Identity and chemical structure of the six best-performing compounds.

Assay [3] concerns the target T3, sDSP (DSP178–627) (Homo sapiens, UniProt P15924, R451G).
T3 construct: gene DSP; N-terminal spectrin repeat/SH3 fragment, residues 178-627; pGEX-1 GST fusion cut with thrombin, E. coli BL21(DE3); fluorescein-5-maleimide label on exposed cysteines (C405, C524)
T3 sequence (P15924 178-627 R451G): T1 sequence (P15924 178-627 S442F) with F265S, R274G
On the set-up: FITC-sDSP degradation by calpain (1:20), fluorescence polarization after 60 min, per cent of calpain-only control. Conditions: degradation rate of DSP R451G by calpain; read-out: % of control remaining. The method, then: as §1

In assay [4] the target is T1, sDSP (DSP178–627). On the set-up: FITC-sDSP degradation by calpain (1:20), fluorescence polarization after 60 min, per cent of calpain-only control. The settings on record: degradation rate of DSP S442F by calpain; read-out: % of control remaining. The method, then: as §1
The target in assay [5] is T4, sDSP S507F (Homo sapiens, UniProt P15924, S507F).
T4 construct: gene DSP; N-terminal fragment, residues 178-627
On the set-up: FITC-sDSP degradation by calpain (1:20), fluorescence polarization after 60 min, per cent of calpain-only control. Conditions: degradation rate of DSP S507F by calpain; read-out: % of control remaining. The method, then: as §1

The structures appear in SMILES notation. Changes are numbered by the printed parent chain. Where a name gives a salt, the structure may show the parent alone. Read-outs that look alike come from different tables or passages of the source.

T4 sequence (P15924 whole entry S507F, the tested form may be a part): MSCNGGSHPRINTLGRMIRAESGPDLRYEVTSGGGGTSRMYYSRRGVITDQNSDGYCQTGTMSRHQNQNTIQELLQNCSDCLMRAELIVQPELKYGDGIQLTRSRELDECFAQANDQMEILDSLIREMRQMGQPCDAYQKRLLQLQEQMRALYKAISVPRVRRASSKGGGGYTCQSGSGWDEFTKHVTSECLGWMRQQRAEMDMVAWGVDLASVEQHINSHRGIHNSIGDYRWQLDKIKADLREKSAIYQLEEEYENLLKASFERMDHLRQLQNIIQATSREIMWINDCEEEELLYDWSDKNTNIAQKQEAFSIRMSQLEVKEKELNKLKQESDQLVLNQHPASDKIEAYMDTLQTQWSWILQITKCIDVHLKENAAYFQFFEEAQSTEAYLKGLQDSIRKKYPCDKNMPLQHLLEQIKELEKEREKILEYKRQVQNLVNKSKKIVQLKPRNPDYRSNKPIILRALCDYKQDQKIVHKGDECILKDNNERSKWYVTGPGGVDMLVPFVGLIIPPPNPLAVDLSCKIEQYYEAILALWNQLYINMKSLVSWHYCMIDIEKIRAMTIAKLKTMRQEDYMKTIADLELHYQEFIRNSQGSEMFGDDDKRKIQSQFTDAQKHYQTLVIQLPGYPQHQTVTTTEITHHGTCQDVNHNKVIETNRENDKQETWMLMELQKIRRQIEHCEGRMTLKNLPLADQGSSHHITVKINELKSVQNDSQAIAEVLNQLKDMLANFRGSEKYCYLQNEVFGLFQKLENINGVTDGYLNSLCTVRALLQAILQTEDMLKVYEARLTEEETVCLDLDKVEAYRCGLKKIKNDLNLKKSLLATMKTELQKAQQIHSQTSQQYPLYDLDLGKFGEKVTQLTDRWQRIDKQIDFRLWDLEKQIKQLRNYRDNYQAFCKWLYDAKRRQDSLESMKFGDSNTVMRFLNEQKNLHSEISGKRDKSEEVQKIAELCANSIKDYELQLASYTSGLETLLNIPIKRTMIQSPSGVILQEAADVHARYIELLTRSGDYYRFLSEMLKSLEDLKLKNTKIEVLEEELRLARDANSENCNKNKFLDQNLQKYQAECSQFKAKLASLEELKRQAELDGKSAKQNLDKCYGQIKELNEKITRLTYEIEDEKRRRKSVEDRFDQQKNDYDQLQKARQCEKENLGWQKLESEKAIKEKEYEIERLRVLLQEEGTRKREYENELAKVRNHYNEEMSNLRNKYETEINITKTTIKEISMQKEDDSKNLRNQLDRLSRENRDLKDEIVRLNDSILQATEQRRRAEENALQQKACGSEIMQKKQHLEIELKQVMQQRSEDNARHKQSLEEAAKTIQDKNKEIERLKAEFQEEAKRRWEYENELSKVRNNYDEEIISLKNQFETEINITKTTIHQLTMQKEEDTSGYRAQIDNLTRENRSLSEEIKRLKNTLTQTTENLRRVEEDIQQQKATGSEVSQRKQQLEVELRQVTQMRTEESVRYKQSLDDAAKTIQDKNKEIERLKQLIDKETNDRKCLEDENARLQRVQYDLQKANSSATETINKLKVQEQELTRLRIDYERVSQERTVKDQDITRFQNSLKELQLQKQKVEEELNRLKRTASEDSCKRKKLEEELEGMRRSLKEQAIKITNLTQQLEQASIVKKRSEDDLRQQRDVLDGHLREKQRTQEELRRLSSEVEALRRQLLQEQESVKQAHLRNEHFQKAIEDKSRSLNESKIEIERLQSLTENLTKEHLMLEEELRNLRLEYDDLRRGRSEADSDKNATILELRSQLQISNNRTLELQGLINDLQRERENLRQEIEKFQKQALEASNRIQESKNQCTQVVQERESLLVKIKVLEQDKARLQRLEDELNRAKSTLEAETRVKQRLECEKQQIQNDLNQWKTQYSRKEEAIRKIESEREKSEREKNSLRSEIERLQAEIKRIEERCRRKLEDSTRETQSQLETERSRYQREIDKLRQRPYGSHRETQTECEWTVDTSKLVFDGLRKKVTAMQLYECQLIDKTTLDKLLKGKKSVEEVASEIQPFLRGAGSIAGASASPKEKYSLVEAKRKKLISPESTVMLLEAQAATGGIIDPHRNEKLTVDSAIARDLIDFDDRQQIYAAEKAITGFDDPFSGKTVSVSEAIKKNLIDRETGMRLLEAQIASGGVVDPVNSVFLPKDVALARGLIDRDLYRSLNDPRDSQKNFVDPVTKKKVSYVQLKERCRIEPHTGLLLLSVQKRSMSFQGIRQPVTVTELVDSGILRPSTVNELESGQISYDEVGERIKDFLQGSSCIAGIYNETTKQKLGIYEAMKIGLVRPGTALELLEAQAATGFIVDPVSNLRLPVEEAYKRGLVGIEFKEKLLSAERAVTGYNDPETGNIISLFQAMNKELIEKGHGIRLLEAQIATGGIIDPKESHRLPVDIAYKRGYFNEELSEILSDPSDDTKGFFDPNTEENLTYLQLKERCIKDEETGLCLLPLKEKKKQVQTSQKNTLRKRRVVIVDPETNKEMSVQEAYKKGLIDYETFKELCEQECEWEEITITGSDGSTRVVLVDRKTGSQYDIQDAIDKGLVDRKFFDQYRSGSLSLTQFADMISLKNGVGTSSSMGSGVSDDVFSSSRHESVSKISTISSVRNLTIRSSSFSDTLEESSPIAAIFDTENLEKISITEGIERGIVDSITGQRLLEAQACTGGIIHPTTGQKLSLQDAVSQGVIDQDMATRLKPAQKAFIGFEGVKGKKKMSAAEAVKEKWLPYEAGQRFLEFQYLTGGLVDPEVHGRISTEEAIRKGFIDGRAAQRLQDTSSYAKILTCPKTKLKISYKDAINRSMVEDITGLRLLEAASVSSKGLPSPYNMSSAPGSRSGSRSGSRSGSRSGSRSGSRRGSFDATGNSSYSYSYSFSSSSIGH

`CC(=O)O[C@H]1C(=O)[C@@]2(C)[C@H]([C@H](OC(=O)c3ccccc3)[C@]3(O)C[C@H](OC(=O)[C@H](O)[C@@H](NC(=O)c4ccccc4)c4ccccc4)C(C)=C1C3(C)C)[C@]1(OC(C)=O)CO[C@@H]1C[C@@H]2O` [Taxol]: the remaining activity at 500 µM in assay [1] stood at 31%; in assay [2] it was 48%; in assay [3], 38%; in assay [4] it was 87%; in assay [5], 34%.

Consider `CCCCc1ncc(/C=C(\Cc2cccs2)C(=O)O)n1Cc1ccc(C(=O)O)cc1` [eprosarten mesylate], for which the remaining activity at 500 µM worked out at 32% in assay [1]; 30% in assay [2]; 33% in assay [3]; 26% in assay [4]; 31% in assay [5].

Take `CCCCCCCCCCCCCCCC(=O)NCCO` [palmitoylethanolamide]: the remaining activity at 500 µM in assay [1] is 26%; in assay [2], 22%; in assay [3], 8%; in assay [4], -3%; in assay [5], 3%.

As for `CC(C)=CCC/C(C)=C/CC/C(C)=C/CSc1ccccc1C(=O)O` [salirasib], the remaining activity at 500 µM is -8% in assay [1]; 32% in assay [2]; -5% in assay [3]; 29% in assay [4]; 26% in assay [5].
